Data taken from patent publication US11292796B2 (SIGNAL PHARMACEUTICALS, LLC, priority 2008, dated 2022).

Molecular target: T1, mTOR (Homo sapiens, UniProt P42345)
T1 construct: purchased Invitrogen PR8683A
Test: mTOR HTR-FRET assay
Assay type: biochemical
Details: read-out: Act. Level (IC50 in mTor HTR-FRET assay)
Procedure, shortened: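 Test compounds, taken from 10 mM DMSO stocks and diluted, were mixed with mTOR enzyme (0.200 μg/mL) in Tris buffer pH 7.4 with 100 mM NaCl, 0.1% Tween-20 and 1 mM DTT. ATP/substrate addition initiated the reaction, alongside compound-free controls.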

T1 sequence (P42345 1360-2549 limits assumed): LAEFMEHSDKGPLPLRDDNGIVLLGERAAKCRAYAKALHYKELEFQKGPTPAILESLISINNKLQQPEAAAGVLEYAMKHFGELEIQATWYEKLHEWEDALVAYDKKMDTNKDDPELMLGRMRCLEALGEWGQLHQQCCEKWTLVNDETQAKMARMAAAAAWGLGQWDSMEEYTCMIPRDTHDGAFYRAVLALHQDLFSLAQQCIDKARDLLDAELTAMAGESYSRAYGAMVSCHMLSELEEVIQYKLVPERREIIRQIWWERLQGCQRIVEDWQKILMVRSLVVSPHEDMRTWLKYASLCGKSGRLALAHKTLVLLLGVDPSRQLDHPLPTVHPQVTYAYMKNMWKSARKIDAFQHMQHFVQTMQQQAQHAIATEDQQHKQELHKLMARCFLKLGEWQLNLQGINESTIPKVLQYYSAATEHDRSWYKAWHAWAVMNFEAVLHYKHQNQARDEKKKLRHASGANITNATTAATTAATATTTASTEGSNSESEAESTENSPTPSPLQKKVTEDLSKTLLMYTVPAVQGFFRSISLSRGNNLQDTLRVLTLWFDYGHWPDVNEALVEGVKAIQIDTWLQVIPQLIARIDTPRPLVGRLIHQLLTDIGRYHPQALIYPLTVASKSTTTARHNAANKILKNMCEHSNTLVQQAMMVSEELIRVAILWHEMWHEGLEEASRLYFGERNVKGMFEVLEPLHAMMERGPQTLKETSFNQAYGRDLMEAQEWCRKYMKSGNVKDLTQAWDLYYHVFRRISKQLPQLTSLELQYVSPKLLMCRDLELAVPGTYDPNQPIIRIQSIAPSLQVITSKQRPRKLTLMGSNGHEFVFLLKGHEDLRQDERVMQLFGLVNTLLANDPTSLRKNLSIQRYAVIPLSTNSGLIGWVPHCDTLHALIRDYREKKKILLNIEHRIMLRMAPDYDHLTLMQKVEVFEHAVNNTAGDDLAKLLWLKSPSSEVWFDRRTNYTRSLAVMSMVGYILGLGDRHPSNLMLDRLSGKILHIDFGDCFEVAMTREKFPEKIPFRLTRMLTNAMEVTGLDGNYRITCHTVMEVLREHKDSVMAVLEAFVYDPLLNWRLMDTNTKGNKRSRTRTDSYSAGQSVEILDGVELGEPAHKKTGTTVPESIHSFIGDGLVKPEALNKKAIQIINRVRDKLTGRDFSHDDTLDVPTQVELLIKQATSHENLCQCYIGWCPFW

Row | Structure (SMILES) | IC50 [nM]
1 | O=C1CN(CCC2CCOCC2)c2nc(-c3cccc(-c4ncn[nH]4)c3)cnc2N1 [Example 31, 6-(3-(1H-1,2,4-triazol-5-yl)phenyl)-4-(2-(tetrahydro-2H-pyran-4-yl)ethyl)-3,4-dihydropyrazino[2,3-b]pyrazin-2(1H)-one] | 1000 to 10000
2 | Cc1cc(-c2nnc[nH]2)ccc1-c1cnc2c(n1)NC(=O)CN2 [Example 239, 7-(2-methyl-4-(4H-1,2,4-triazol-3-yl)phenyl)-3,4-dihydropyrazino[2,3-b]pyrazin-2(1H)-one] | 0.005 to 250
3 | CNc1ccc(-c2cnc3c(n2)N(CCC2CCOCC2)C(=O)CN3)cn1 [Example 184, 7-(6-(methylamino)pyridin-3-yl)-1-(2-(tetrahydro-2H-pyran-4-yl)ethyl)-3,4-dihydropyrazino[2,3-b]pyrazin-2(1H)-one] | 0.005 to 250
4 | O=C1CNc2ncc(-c3ccncc3)nc2N1CCC1CCOCC1 [Example 195, 7-(pyridin-4-yl)-1-(2-(tetrahydro-2H-pyran-4-yl)ethyl)-3,4-dihydropyrazino[2,3-b]pyrazin-2(1H)-one] | 1000 to 10000
5 | Cc1cc(-c2cnc3c(n2)N(CCC2CCOCC2)C(=O)CN3)cc2[nH]c(N)nc12 [Example 269, 7-(2-amino-4-methyl-1H-benzo[d]imidazol-6-yl)-1-(2-(tetrahydro-2H-pyran-4-yl)ethyl)-3,4-dihydropyrazino[2,3-b]pyrazin-2(1H)-one] | 0.005 to 250
6 | Cc1cc(-c2nc[nH]n2)c(F)cc1-c1cnc2c(n1)N([C@H]1CC[C@H](O)CC1)C(=O)CN2 [Example 174, 7-(5-fluoro-2-methyl-4-(1H-1,2,4-triazol-3-yl)phenyl)-1-(trans-4-hydroxycyclohexyl)-3,4-dihydropyrazino[2,3-b]pyrazin-2(1H)-one] | 0.005 to 250
7 | CC(C)(O)c1ccc(-c2cnc3c(n2)N(Cc2cccc(C(F)(F)F)c2)CC(=O)N3)cn1 [Example 137, 6-(6-(2-hydroxypropan-2-yl)pyridin-3-yl)-4-(3-(trifluoromethyl)benzyl)-3,4-dihydropyrazino[2,3-b]pyrazin-2(1H)-one] | 0.005 to 250
8 | O=C1CNc2ncc(-c3ccc(-c4nc[nH]n4)nc3)nc2N1[C@H]1CC[C@H](O)CC1 [Example 170, 7-(6-(1H-1,2,4-triazol-3-yl)pyridin-3-yl)-1-(trans-4-hydroxycyclohexyl)-3,4-dihydropyrazino[2,3-b]pyrazin-2(1H)-one] | 0.005 to 250
9 | Cc1cc(-c2nc[nH]n2)ncc1-c1cnc2c(n1)N(CCC1CCOCC1)C(=O)CN2 [Example 260, 7-(4-methyl-6-(1H-1,2,4-triazol-3-yl)pyridin-3-yl)-1-(2-(tetrahydro-2H-pyran-4-yl)ethyl)-3,4-dihydropyrazino[2,3-b]pyrazin-2(1H)-one] | 0.005 to 250
10 | O=C1CN(C[C@H]2CCCO2)c2nc(-c3ccc(-c4nnc[nH]4)cc3)cnc2N1 [Example 67, (R)-6-(4-(4H-1,2,4-triazol-3-yl)phenyl)-4-((tetrahydrofuran-2-yl)methyl)-3,4-dihydropyrazino[2,3-b]pyrazin-2(1H)-one] | 0.005 to 250
11 | COCCN1CC(=O)Nc2ncc(-c3ccc(-c4nc[nH]n4)nc3)nc21 [Example 16] | 0.005 to 250
12 | O=C1CNc2ncc(-c3cccc4[nH]ncc34)nc2N1CCC1CCOCC1 [Example 181, 7-(1H-indazol-4-yl)-1-(2-(tetrahydro-2H-pyran-4-yl)ethyl)-3,4-dihydropyrazino[2,3-b]pyrazin-2(1H)-one] | 0.005 to 250
13 | O=C1Nc2ncc(-c3ccc(-c4nnc[nH]4)nc3)nc2N2CCOCC12 (stereo not shown) [Example 92, 9-(6-(4H-1,2,4-triazol-3-yl)-3-pyridyl)-6,11,4a-trihydromorpholino[4,3-e]pyrazino[2,3-b]pyrazin-5-one] | 500 to 1000
14 | CO[C@H]1CC[C@H](N2CC(=O)Nc3ncc(-c4ccc(C(C)(C)O)cc4)nc32)CC1 [Example 86, 6-(4-(2-hydroxypropan-2-yl)phenyl)-4-(trans-4-methoxycyclohexyl)-3,4-dihydropyrazino[2,3-b]pyrazin-2(1H)-one] | 0.005 to 250
15 | Cc1cc(-c2nnc[nH]2)ccc1-c1cnc2c(n1)N(CC1CCOCC1)C1(CCC1)C(=O)N2 [Example 62, 7′-(2-methyl-4-(4H-1,2,4-triazol-3-yl)phenyl)-1′-((tetrahydro-2H-pyran-4-yl)methyl)-1′H-spiro[cyclobutane-1,2′-pyrazino[2,3-b]pyrazin]-3′(4′H)-one] | 0.005 to 250
16 | CC(C)(O)c1ccc(-c2cnc3c(n2)N(CC2CCOC2)CC(=O)N3)cn1 (stereo not shown) [Example 103, 6-(6-(2-hydroxypropan-2-yl)pyridin-3-yl)-4-((tetrahydrofuran-3-yl)methyl)-3,4-dihydropyrazino[2,3-b]pyrazin-2(1H)-one] | 500 to 1000
17 | Cc1cc(-c2nnc[nH]2)ccc1-c1cnc2c(n1)N1CCOCC1C(=O)N2 (stereo not shown) [Example 138, 9-(4-(4H-1,2,4-triazol-3-yl)-2-methylphenyl)-6,11,4a-trihydromorpholino[4,3-e]pyrazino[2,3-b]pyrazin-5-one] | 0.005 to 250
18 | C[C@H]1Nc2ncc(-c3ccc(C(C)(C)O)nc3)nc2N(CCC2CCOCC2)C1=O [Example 266, (R)-7-(6-(2-hydroxypropan-2-yl)pyridin-3-yl)-3-methyl-1-(2-(tetrahydro-2H-pyran-4-yl)ethyl)-3,4-dihydropyrazino[2,3-b]pyrazin-2(1H)-one] | 500 to 1000
19 | COCCN1C(=O)CNc2ncc(-c3ccc(C(C)(C)O)cc3)nc21 [Example 252, 7-(4-(2-hydroxypropan-2-yl)phenyl)-1-(2-methoxyethyl)-3,4-dihydropyrazino[2,3-b]pyrazin-2(1H)-one] | 1000 to 10000
20 | CCN1C(=O)CNc2ncc(-c3cnc4[nH]ccc4c3)nc21 [Example 193, 1-ethyl-7-(1H-pyrrolo[2,3-b]pyridin-5-yl)-3,4-dihydropyrazino[2,3-b]pyrazin-2(1H)-one] | 250 to 500
21 | COCCN1CC(=O)Nc2ncc(-c3ccc(-c4nnc[nH]4)c(F)c3)nc21 [Example 59, 6-(3-fluoro-4-(4H-1,2,4-triazol-3-yl)phenyl)-4-(2-methoxyethyl)-3,4-dihydropyrazino[2,3-b]pyrazin-2(1H)-one] | 0.005 to 250
22 | C[C@H](O)c1ccc(-c2cnc3c(n2)N(CCC2CCOCC2)C(=O)CN3)cn1 [Example 253, (S)-7-(6-(1-hydroxyethyl)pyridin-3-yl)-1-(2-(tetrahydro-2H-pyran-4-yl)ethyl)-3,4-dihydropyrazino[2,3-b]pyrazin-2(1H)-one] | 0.005 to 250
23 | CO[C@H]1CC[C@@H](CN2CC(=O)Nc3ncc(-c4ccc(C(C)(C)O)nc4)nc32)C1 [Example 57, 6-(6-(2-hydroxypropan-2-yl)pyridin-3-yl)-4-(((1R,3S)-3-methoxycyclopentyl)methyl)-3,4-dihydropyrazino[2,3-b]pyrazin-2(1H)-one] | 0.005 to 250
24 | Cc1cc(-c2cnc3c(n2)N(Cc2cccc(C(F)(F)F)c2)CC(=O)N3)cc2nc(N)[nH]c12 [Example 136, 6-(2-amino-7-methyl-1H-benzo[d]imidazol-5-yl)-4-(3-(trifluoromethyl)benzyl)-3,4-dihydropyrazino[2,3-b]pyrazin-2(1H)-one] | 500 to 1000
25 | CNc1nc2c(C)cc(-c3cnc4c(n3)N(CC3CCOCC3)C(=O)CN4)cc2[nH]1 [Example 263, 7-(4-methyl-2-(methylamino)-1H-benzo[d]imidazol-6-yl)-1-((tetrahydro-2H-pyran-4-yl)methyl)-3,4-dihydropyrazino[2,3-b]pyrazin-2(1H)-one] | 0.005 to 250
